Laboratory results: article PMC12344197 (Bioactive Materials, 2025)
Where a SMILES comes first, the peptide text is derived from it. The star is where a group is joined. Succinyl(20-O-(20S)-CPT) = CC[C@@]1(OC(=O)CCC(=O)*)C(=O)OCc2c1cc1n(c2=O)Cc2cc3ccccc3nc2-1; Biotin = O=C1N[C@H]2[C@H](CS[C@H]2CCCCC(=O)*)N1

Assays:
4T1 cells = test: CCK-8 assay; assay type: cell-based; details: 20 μM, 4 h incubation, washed, n = 6; for cell viability, no laser: dark, further 24 h
Zeta potential = assay type: physicochemical; details: 10 μM in PBS pH 7.4
Red blood cells (RBCs) = test: Hemolysis assay; assay type: cell-based, BALB/c mice; details: mouse RBC suspension in PBS, 2 h, OD540; n = 3

## CC[C@@]1(O)C(=O)OCc2c1cc1n(c2=O)Cc2cc3ccccc3nc2-1 [Free CPT, camptothecin]
4T1 cells
  cell viability, no laser: 49.3%

## CN1C(=CC=C2CCCC(C=CC3=[N+](C)c4ccccc4C3(C)C)=C2Cl)C(C)(C)c2ccccc21.[Cl-] [free IR775, IR775]
4T1 cells; 808 nm laser 5 min 1 W cm−2, further 24 h, absence of biotin
  cell viability, + Laser: 38.3%
4T1 cells
  cell viability, no laser: above 80%
Zeta potential
  zeta potential: +23.9 mV

## CC[C@@]1(OC(=O)CCC(=O)NCCCC[C@H](NC(=O)[C@H](Cc2ccccc2)NC(=O)[C@@H](N)Cc2ccccc2)C(=O)N[C@@H](CCCCNC(=O)CCCC[C@@H]2SC[C@@H]3NC(=O)N[C@@H]32)C(=O)O)C(=O)OCc2c1cc1n(c2=O)Cc2cc3ccccc3nc2-1 [FFKK-CPT, Phe-Phe-Lys(CPT)-Lys(Biotin)] (H-FFK(Succinyl(20-O-(20S)-CPT))K(Biotin)-OH)
Red blood cells (RBCs)
  hemolysis: no significant hemolysis
